Assay results: patent US20230085307A1, “PYRIDAZINONE COMPOUND AND HERBICIDE” (NISSAN CHEMICAL CORPORATION, priority 2019, published 2023)

Tests used:
Japanese bulrush [1] = test: Test Example 1: herbicidal activity, application before weed generation under submerged conditions (Table 16, symbol B); assay type: in vivo, Japanese bulrush (Schoenoplectus juncoides); conditions: 320 g/ha applied herbicide
How it was run: (§1)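 Emulsion formulation, water-diluted to set dose, was put onto the flooded surface (4 cm depth, alluvial soil) the same day weeds were sown and 2.5-leaf rice transplanted. After 3 weeks at 25-30 °C under glass, each species was rated 0 (≤5% kill) to 5 (≥90% kill).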

oval-leafed pondweed [2] = test: Test Example 1: herbicidal activity, application before weed generation under submerged conditions (Table 16, symbol C); assay type: in vivo, oval-leafed pondweed (Monochoria vaginalis); conditions: 320 g/ha applied herbicide
How it was run: as §1

Japanese bulrush [3] = test: Test Example 2: herbicidal activity, application during weed generation under submerged conditions (Table 17, symbol B); assay type: in vivo, Japanese bulrush (Schoenoplectus juncoides); conditions: AAH 320 g/ha; application during weed generation, submerged conditions
How it was run: (§2)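 Steps: fill Wagner pots with alluvial soil; add water to give 4 cm depth; sow the species mixed; grow under glass at 25–30° C.; at 1–2 leaves apply water-diluted emulsion formulation to the water surface at a fixed herbicide amount; score after 3 weeks.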

oval-leafed pondweed [4] = test: Test Example 2: herbicidal activity, application during weed generation under submerged conditions (Table 17, symbol C); assay type: in vivo, oval-leafed pondweed (Monochoria vaginalis); conditions: AAH 320 g/ha; application during weed generation, submerged conditions
How it was run: as §2

barnyard grass [5] = test: Test Example 3: herbicidal effect by foliage application, Wagner pot (Table 18, symbol H); assay type: in vivo, barnyard grass (Echinochloa crus-galli); conditions: 320 g/ha
How it was run: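 Plants were sown in alluvial soil held under 0.1–0.5 cm standing water and grown 14 days in a greenhouse at 25–30 °C. An emulsifiable formulation, water-diluted to the set dose, was then sprayed onto the foliage, and effects were scored three weeks later using previously defined criteria.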

green foxtail [6] = test: Test Example 4: herbicidal effect by soil treatment (Table 19, symbol G); assay type: in vivo, green foxtail (Setaria viridis); conditions: 320 g/ha
How it was run: (§3)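 Three weeks of greenhouse growth at 25° C. to 30° C. followed a uniform surface spray of water-diluted emulsion at a predetermined herbicide amount. Seeds had been sown beforehand under about 1.5 cm of sterilized diluvial soil. Grading followed criteria set out in an earlier test.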

barnyard grass [7] = test: Test Example 4: herbicidal effect by soil treatment (Table 19, symbol H); assay type: in vivo, barnyard grass (Echinochloa crus-galli); conditions: 320 g/ha
How it was run: as §3

blackgrass [8] = test: Test Example 4: herbicidal effect by soil treatment (Table 19, symbol J); assay type: in vivo, blackgrass (Alopecurus myosuroides); conditions: 320 g/ha
How it was run: as §3

velvetleaf [9] = test: Test Example 4: herbicidal effect by soil treatment (Table 19, symbol M); assay type: in vivo, velvetleaf (Abutilon theophrasti); conditions: 320 g/ha
How it was run: as §3

redroot pigweed = test: Test Example 4: herbicidal effect by soil treatment (Table 19, symbol N); assay type: in vivo, redroot pigweed (Amaranthus retroflexus); conditions: 320 g/ha
How it was run: as §3

persian speedwell [10] = test: Test Example 4: herbicidal effect by soil treatment (Table 19, symbol R); assay type: in vivo, Persian speedwell (Veronica persica); conditions: 320 g/ha
How it was run: as §3

southern crabgrass = test: Test Example 5: herbicidal effect by foliage application, plastic box (Table 20, symbol F); assay type: in vivo, southern crabgrass (Digitaria ciliaris); conditions: foliage application, 320 g/ha, evaluated three weeks after application
How it was run: (§4)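 Plants sown in sterilized diluvial soil and grown 14 days in a greenhouse at 25° C to 30° C, then sprayed on the foliage with the compound's emulsion diluted in water to a predetermined herbicide amount. Injury to weeds and crops scored three weeks after application on a visual rating scale.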

green foxtail [11] = test: Test Example 5: herbicidal effect by foliage application, plastic box (Table 20, symbol G); assay type: in vivo, green foxtail (Setaria viridis); conditions: foliage application, 320 g/ha, evaluated three weeks after application
How it was run: as §4

blackgrass [12] = test: Test Example 5: herbicidal effect by foliage application, plastic box (Table 20, symbol J); assay type: in vivo, blackgrass (Alopecurus myosuroides); conditions: foliage application, 320 g/ha, evaluated three weeks after application
How it was run: as §4

windgrass = test: Test Example 5: herbicidal effect by foliage application, plastic box (Table 20, symbol L); assay type: in vivo, windgrass (Apera spica-venti); conditions: foliage application, 320 g/ha, evaluated three weeks after application
How it was run: as §4

velvetleaf [13] = test: Test Example 5: herbicidal effect by foliage application, plastic box (Table 20, symbol M); assay type: in vivo, velvetleaf (Abutilon theophrasti); conditions: foliage application, 320 g/ha, evaluated three weeks after application
How it was run: as §4

persian speedwell [14] = test: Test Example 5: herbicidal effect by foliage application, plastic box (Table 20, symbol R); assay type: in vivo, Persian speedwell (Veronica persica); conditions: foliage application, 320 g/ha, evaluated three weeks after application
How it was run: as §4

| SMILES | Herbicidal effect on B: Japanese bulrush (grade 0-5) (Japanese bulrush [1]) | Herbicidal effect on C: oval-leafed pondweed (grade 0-5) (oval-leafed pondweed [2]) | herbicidal effect rating, B: Japanese bulrush (Japanese bulrush [3]) | herbicidal effect rating, C: oval-leafed pondweed (oval-leafed pondweed [4]) | herbicidal effect on H (barnyard grass), rating 0-5 (barnyard grass [5]) | herbicidal effect rating, G: green foxtail (green foxtail [6]) | herbicidal effect rating, H: barnyard grass (barnyard grass [7]) | herbicidal effect rating, J: blackgrass (blackgrass [8]) | herbicidal effect rating, M: velvetleaf (velvetleaf [9]) | herbicidal effect rating, N: redroot pigweed (redroot pigweed) | herbicidal effect rating, R: persian speedwell (persian speedwell [10]) | herbicidal effect on F: southern crabgrass (southern crabgrass) | herbicidal effect on G: green foxtail (green foxtail [11]) | herbicidal effect on J: blackgrass (blackgrass [12]) | herbicidal effect on L: windgrass (windgrass) | herbicidal effect on M: velvetleaf (velvetleaf [13]) | herbicidal effect on R: persian speedwell (persian speedwell [14]) |
| --- | --- | --- | --- | --- | --- | --- | --- | --- | --- | --- | --- | --- | --- | --- | --- | --- | --- |
| Cc1nn(C)c(=O)c(-c2c(-c3ccc(OCc4ccccc4)cc3)sc3ccc(F)cc23)c1O [2-062] | 4 (Herbicidal rate of 70% or more and less than 90%) | 3 (Herbicidal rate of 40% or more and less than 70%) | 3 (Herbicidal rate of 40% or more and less than 70%) | 2 (Herbicidal rate of 20% or more and less than 40%) | 5 (Herbicidal rate of 90% or more (almost completely withered)) | 3 (Herbicidal rate of 40% or more and less than 70%) | 0 (Herbicidal rate of 5% or less (almost no effect)) | 0 (Herbicidal rate of 5% or less (almost no effect)) | 1 (Herbicidal rate of 5% or more and less than 20%) | 4 (Herbicidal rate of 70% or more and less than 90%) | 3 (Herbicidal rate of 40% or more and less than 70%) | 3 (Herbicidal rate of 40% or more and less than 70%) | 5 (Herbicidal rate of 90% or more (almost completely withered)) | 1 (Herbicidal rate of 5% or more and less than 20%) | 4 (Herbicidal rate of 70% or more and less than 90%) | 3 (Herbicidal rate of 40% or more and less than 70%) | 5 (Herbicidal rate of 90% or more (almost completely withered)) |
| CCCC(=O)Oc1c(C)nn(C)c(=O)c1-c1c(-c2ccc(C(C)=O)cc2)sc2ccc(F)cc12 [2-078] | 4 (Herbicidal rate of 70% or more and less than 90%) | 4 (Herbicidal rate of 70% or more and less than 90%) | 4 (Herbicidal rate of 70% or more and less than 90%) | 4 (Herbicidal rate of 70% or more and less than 90%) | 3 (Herbicidal rate of 40% or more and less than 70%) | 0 (Herbicidal rate of 5% or less (almost no effect)) | 0 (Herbicidal rate of 5% or less (almost no effect)) | 1 (Herbicidal rate of 5% or more and less than 20%) | 3 (Herbicidal rate of 40% or more and less than 70%) | 4 (Herbicidal rate of 70% or more and less than 90%) | 5 (Herbicidal rate of 90% or more (almost completely withered)) | 0 (Herbicidal rate of 5% or less (almost no effect)) | 3 (Herbicidal rate of 40% or more and less than 70%) | 4 (Herbicidal rate of 70% or more and less than 90%) | 5 (Herbicidal rate of 90% or more (almost completely withered)) | 5 (Herbicidal rate of 90% or more (almost completely withered)) | 5 (Herbicidal rate of 90% or more (almost completely withered)) |
| CCCC(=O)Oc1c(C)nn(C)c(=O)c1-c1c(-c2ccc(OC)c(F)c2)sc2ccc(F)cc12 [2-087] | 4 (Herbicidal rate of 70% or more and less than 90%) | 4 (Herbicidal rate of 70% or more and less than 90%) | 2 (Herbicidal rate of 20% or more and less than 40%) | 0 (Herbicidal rate of 5% or less (almost no effect)) | 3 (Herbicidal rate of 40% or more and less than 70%) | 0 (Herbicidal rate of 5% or less (almost no effect)) | 0 (Herbicidal rate of 5% or less (almost no effect)) | 0 (Herbicidal rate of 5% or less (almost no effect)) | 3 (Herbicidal rate of 40% or more and less than 70%) | 3 (Herbicidal rate of 40% or more and less than 70%) | 5 (Herbicidal rate of 90% or more (almost completely withered)) | 0 (Herbicidal rate of 5% or less (almost no effect)) | 0 (Herbicidal rate of 5% or less (almost no effect)) | 0 (Herbicidal rate of 5% or less (almost no effect)) | 0 (Herbicidal rate of 5% or less (almost no effect)) | 5 (Herbicidal rate of 90% or more (almost completely withered)) | 5 (Herbicidal rate of 90% or more (almost completely withered)) |
| COc1ccc(-c2sc3ccc(F)cc3c2-c2c(O)c(C)nn(C)c2=O)cc1OC [2-088] | 2 (Herbicidal rate of 20% or more and less than 40%) | 0 (Herbicidal rate of 5% or less (almost no effect)) | 0 (Herbicidal rate of 5% or less (almost no effect)) | 2 (Herbicidal rate of 20% or more and less than 40%) | 5 (Herbicidal rate of 90% or more (almost completely withered)) | 3 (Herbicidal rate of 40% or more and less than 70%) | 4 (Herbicidal rate of 70% or more and less than 90%) | 0 (Herbicidal rate of 5% or less (almost no effect)) | 2 (Herbicidal rate of 20% or more and less than 40%) | 4 (Herbicidal rate of 70% or more and less than 90%) | 3 (Herbicidal rate of 40% or more and less than 70%) | 3 (Herbicidal rate of 40% or more and less than 70%) | 5 (Herbicidal rate of 90% or more (almost completely withered)) | 0 (Herbicidal rate of 5% or less (almost no effect)) | 0 (Herbicidal rate of 5% or less (almost no effect)) | 5 (Herbicidal rate of 90% or more (almost completely withered)) | 5 (Herbicidal rate of 90% or more (almost completely withered)) |
| CCCC(=O)Oc1c(C)nn(C)c(=O)c1-c1c(-c2ccc(OC)c(OC)c2)sc2ccc(F)cc12 [2-089] | 4 (Herbicidal rate of 70% or more and less than 90%) | 4 (Herbicidal rate of 70% or more and less than 90%) | 3 (Herbicidal rate of 40% or more and less than 70%) | 4 (Herbicidal rate of 70% or more and less than 90%) | 4 (Herbicidal rate of 70% or more and less than 90%) | 5 (Herbicidal rate of 90% or more (almost completely withered)) | 4 (Herbicidal rate of 70% or more and less than 90%) | 0 (Herbicidal rate of 5% or less (almost no effect)) | 4 (Herbicidal rate of 70% or more and less than 90%) | 4 (Herbicidal rate of 70% or more and less than 90%) | 5 (Herbicidal rate of 90% or more (almost completely withered)) | 3 (Herbicidal rate of 40% or more and less than 70%) | 5 (Herbicidal rate of 90% or more (almost completely withered)) | 0 (Herbicidal rate of 5% or less (almost no effect)) | 0 (Herbicidal rate of 5% or less (almost no effect)) | 5 (Herbicidal rate of 90% or more (almost completely withered)) | 5 (Herbicidal rate of 90% or more (almost completely withered)) |
